EC50 data for 1 compound are collected here from ChEMBL document CHEMBL5725610, “Phosphonate compounds” (2018).

This assay deals with Protease (Human immunodeficiency virus 1, UniProt Q9YQ12).

Broadly, the EC50 is the concentration needed to bring the measured effect to its halfway point. A higher EC50 goes with a need for much substance.

The structures appear in SMILES notation.

Sequence of Protease (Q9YQ12 whole entry): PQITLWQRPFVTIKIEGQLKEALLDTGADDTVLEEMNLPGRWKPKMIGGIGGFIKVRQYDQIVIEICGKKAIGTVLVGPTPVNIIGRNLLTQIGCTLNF

With `Nc1ncnc2c1ncn2CCOCP(=O)(O)O` [ADEFOVIR], the concentration for a half-maximal effect (EC50) is 16 µM.
